# ChEMBL document CHEMBL1201862, “PubChem BioAssay data set” (2004)
#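 Growth conditions: 96-well plates. Treatment: test compound, 48 hours, 5 concentrations. Analysis: linear interpolation between bracketing concentrations; unreached endpoints set to highest concentration. Here, GI50 denotes the concentration required for 50% inhibition of growth.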 Active and inactive are the calls of the source. Cut-off read from the data, not from the text of the source: active = GI50 up to about 1.1 µM and inactive = higher.
# Experiments:
# Assay in all cases: NCI tumour cell line growth inhibition, 48 h
# NCI-H23 = tested on: NCI-H23
# HCC 2998 = tested on: HCC 2998
# SNB-19 = tested on: SNB-19
# NCI/ADR-RES = tested on: NCI/ADR-RES
# NCI-H522 = tested on: NCI-H522
# CCRF-CEM = tested on: CCRF-CEM
# HCT-116 = tested on: HCT-116
# XF498 = tested on: XF498
# A549 = tested on: A549
# RXF 393 = tested on: RXF 393
# CAKI-1 = tested on: CAKI-1
# SF-539 = tested on: SF-539
# SK-OV-3 = tested on: SK-OV-3
# SN12C = tested on: SN12C
# DMS-273 = tested on: DMS-273
# A498 = tested on: A498
# MOLT-4 = tested on: MOLT-4
# M19-MEL = tested on: M19-MEL
# UACC-257 = tested on: UACC-257
# HOP-18 = tested on: HOP-18
# SW-620 = tested on: SW-620
# COLO 205 = tested on: COLO 205
# IGROV-1 = tested on: IGROV-1
# HOP-62 = tested on: HOP-62
# 786-0 = tested on: 786-0
# SNB-75 = tested on: SNB-75
# HL-60 = tested on: HL-60
# SK-MEL-28 = tested on: SK-MEL-28
# LXFL 529 = tested on: LXFL 529
# SK-MEL-2 = tested on: SK-MEL-2
# NCI-H460 = tested on: NCI-H460
# TK-10 = tested on: TK-10
# DLD-1 = tested on: DLD-1
# KM12 = tested on: KM12
# NCI-H226 = tested on: NCI-H226
# SF-268 = tested on: SF-268
# SR = tested on: SR
# KM-20L2 = tested on: KM-20L2
# MCF7 = tested on: MCF7
# K562 = tested on: K562
# U-251 = tested on: U-251
# M14 = tested on: M14
# EKVX = tested on: EKVX
# ACHN = tested on: ACHN
# UO-31 = tested on: UO-31
# RPMI-8226 = tested on: RPMI-8226
# OVCAR-5 = tested on: OVCAR-5
# LOX IMVI = tested on: LOX IMVI
# UACC-62 = tested on: UACC-62
# OVCAR-3 = tested on: OVCAR-3
# HOP-92 = tested on: HOP-92
# HT-29 = tested on: HT-29
# OVCAR-4 = tested on: OVCAR-4
# Malme-3M = tested on: Malme-3M
# DMS-114 = tested on: DMS-114
# SF-295 = tested on: SF-295
# SK-MEL-5 = tested on: SK-MEL-5
# OVCAR-8 = tested on: OVCAR-8
# HCT-15 = tested on: HCT-15
# SNB-78 = tested on: SNB-78
compound,measurement,setting,value
Nc1ncc(CN2CCCC2)c(-c2ccccc2O)n1,GI50,NCI-H23,> 750 µM (inactive)
same,GI50,HCC 2998,> 750 µM (inactive)
same,GI50,SNB-19,> 750 µM (inactive)
same,GI50,NCI/ADR-RES,> 100 µM (inactive)
same,GI50,NCI-H522,> 750 µM (inactive)
same,GI50,CCRF-CEM,8.39 µM (inactive)
same,GI50,HCT-116,> 750 µM (inactive)
same,GI50,XF498,> 750 µM (inactive)
same,GI50,A549,> 750 µM (inactive)
same,GI50,RXF 393,> 750 µM (inactive)
same,GI50,CAKI-1,> 750 µM (inactive)
same,GI50,SF-539,> 750 µM (inactive)
same,GI50,SK-OV-3,> 750 µM (inactive)
same,GI50,SN12C,> 750 µM (inactive)
same,GI50,DMS-273,> 750 µM (inactive)
same,GI50,A498,> 750 µM (inactive)
same,GI50,MOLT-4,> 750 µM (inactive)
same,GI50,M19-MEL,> 750 µM (inactive)
same,GI50,UACC-257,> 750 µM (inactive)
same,GI50,HOP-18,433 µM (inactive)
same,GI50,SW-620,> 750 µM (inactive)
same,GI50,COLO 205,> 750 µM (inactive)
same,GI50,IGROV-1,> 750 µM (inactive)
same,GI50,HOP-62,> 750 µM (inactive)
same,GI50,786-0,> 750 µM (inactive)
same,GI50,SNB-75,> 750 µM (inactive)
same,GI50,HL-60,4.31 µM (inactive)
same,GI50,SK-MEL-28,> 750 µM (inactive)
same,GI50,LXFL 529,> 750 µM (inactive)
same,GI50,SK-MEL-2,> 100 µM (inactive)
same,GI50,NCI-H460,> 750 µM (inactive)
same,GI50,TK-10,> 750 µM (inactive)
same,GI50,DLD-1,> 750 µM (inactive)
same,GI50,KM12,> 750 µM (inactive)
same,GI50,NCI-H226,> 750 µM (inactive)
same,GI50,SF-268,> 750 µM (inactive)
same,GI50,SR,> 750 µM (inactive)
same,GI50,KM-20L2,> 750 µM (inactive)
same,GI50,MCF7,> 100 µM (inactive)
same,GI50,K562,4.51 µM (inactive)
same,GI50,U-251,> 750 µM (inactive)
same,GI50,M14,> 750 µM (inactive)
same,GI50,EKVX,> 100 µM (inactive)
same,GI50,ACHN,> 750 µM (inactive)
same,GI50,UO-31,> 750 µM (inactive)
same,GI50,RPMI-8226,> 750 µM (inactive)
same,GI50,OVCAR-5,> 750 µM (inactive)
same,GI50,LOX IMVI,38.4 µM (inactive)
same,GI50,UACC-62,> 750 µM (inactive)
same,GI50,OVCAR-3,> 750 µM (inactive)
same,GI50,HOP-92,> 750 µM (inactive)
same,GI50,HT-29,> 750 µM (inactive)
same,GI50,OVCAR-4,> 750 µM (inactive)
same,GI50,Malme-3M,> 750 µM (inactive)
same,GI50,DMS-114,> 750 µM (inactive)
same,GI50,SF-295,> 750 µM (inactive)
same,GI50,SK-MEL-5,> 750 µM (inactive)
same,GI50,OVCAR-8,> 750 µM (inactive)
same,GI50,HCT-15,> 750000 nM
Cc1cccc2nc3c(C(=O)NCCN(C)C)cccc3cc12,GI50,NCI-H23,2.07 µM (inactive)
same,GI50,HCC 2998,2.05 µM (inactive)
same,GI50,SNB-19,0.94 µM (active)
same,GI50,NCI/ADR-RES,1.95 µM (inactive)
same,GI50,CCRF-CEM,1.25 µM (inactive)
same,GI50,HCT-116,0.668 µM (active)
same,GI50,XF498,1.58 µM (inactive)
same,GI50,A549,1.09 µM (active)
same,GI50,RXF 393,1.45 µM (inactive)
same,GI50,CAKI-1,0.07 µM (active)
same,GI50,SF-539,2.01 µM (inactive)
same,GI50,SK-OV-3,2.58 µM (inactive)
same,GI50,SN12C,1.19 µM (inactive)
same,GI50,DMS-273,0.929 µM (active)
same,GI50,A498,1.37 µM (inactive)
same,GI50,MOLT-4,0.337 µM (active)
same,GI50,M19-MEL,1.52 µM (inactive)
same,GI50,UACC-257,0.893 µM (active)
same,GI50,HOP-18,2.04 µM (inactive)
same,GI50,SW-620,1 µM (active)
same,GI50,COLO 205,0.681 µM (active)
same,GI50,IGROV-1,2.31 µM (inactive)
same,GI50,HOP-62,1.72 µM (inactive)
same,GI50,SNB-75,2.25 µM (inactive)
same,GI50,HL-60,1.14 µM (inactive)
same,GI50,SK-MEL-28,1.85 µM (inactive)
same,GI50,SK-MEL-2,1.88 µM (inactive)
same,GI50,NCI-H460,0.705 µM (active)
same,GI50,DLD-1,1.42 µM (inactive)
same,GI50,KM12,2.29 µM (inactive)
same,GI50,NCI-H226,1.07 µM (active)
same,GI50,SF-268,1.68 µM (inactive)
same,GI50,KM-20L2,1.41 µM (inactive)
same,GI50,MCF7,2.2 µM (inactive)
same,GI50,K562,1.8 µM (inactive)
same,GI50,U-251,2.52 µM (inactive)
same,GI50,EKVX,1.99 µM (inactive)
same,GI50,UO-31,1.27 µM (inactive)
same,GI50,RPMI-8226,0.789 µM (active)
same,GI50,OVCAR-5,2.27 µM (inactive)
same,GI50,LOX IMVI,1.26 µM (inactive)
same,GI50,UACC-62,1.68 µM (inactive)
same,GI50,OVCAR-3,2.05 µM (inactive)
same,GI50,HOP-92,0.776 µM (active)
same,GI50,HT-29,0.791 µM (active)
same,GI50,OVCAR-4,1.83 µM (inactive)
same,GI50,Malme-3M,1.38 µM (inactive)
same,GI50,DMS-114,1.31 µM (inactive)
same,GI50,SF-295,1.51 µM (inactive)
same,GI50,SK-MEL-5,1.64 µM (inactive)
same,GI50,OVCAR-8,1.07 µM (active)
same,GI50,HCT-15,2330 nM
same,GI50,SNB-78,2.62 µM (inactive)
